Experimental data: the supplement of paper PMC10307832

Columns and labels:
Experiment in all cases: relative viability (nuclei count vs DMSO), 5 days (fraction); higher = more cells survive
[1] = compound: CCC1=CN=CN=C1N2CCN(CC2)CC3=NC4=C(N3)C=C(C=C4)C(F)(F)F + C[C@@H](Oc1cc(-c2cnn(C3CCNCC3)c2)cnc1N)c1c(Cl)ccc(F)c1Cl [Crizotinib] (partner 1 µM)
In short: (§1)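 Dosing by pin tool came one day after lung cancer cell lines were seeded in 1536-well plates, using either one drug or a fixed anchor-drug dose plus five library-drug doses (not always all listed) in √10 steps. After 5 days, nuclei were counted on 4× images. Relative viability is treated-well nuclei count divided by vehicle-well nuclei count, and values are medians of duplicate plates.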

[2] = compound: CCC1=CN=CN=C1N2CCN(CC2)CC3=NC4=C(N3)C=C(C=C4)C(F)(F)F + CCNC(=O)c1noc(-c2cc(C(C)C)c(O)cc2O)c1-c1ccc(CN2CCOCC2)cc1 [Luminespib] (partner 0.01 µM)
In short: as §1

[3] = compound: CCn1c(-c2nonc2N)nc2cnc(Oc3cccc(NC(=O)c4ccc(OCCN5CCOCC5)cc4)c3)cc21 + CS(=O)(=O)CCNCc1ccc(-c2ccc3ncnc(Nc4ccc(OCc5cccc(F)c5)c(Cl)c4)c3c2)o1 [Lapatinib] (partner 2 µM)
In short: as §1

[4] = compound: CCC1=CN=CN=C1N2CCN(CC2)CC3=NC4=C(N3)C=C(C=C4)C(F)(F)F + NC(=O)Nc1cc(-c2cccc(F)c2)sc1C(=O)N[C@H]1CCCNC1 [AZD7762] (partner 0.2 µM)
In short: as §1

Cell Line	relative viability ([1]; first compound 0.04 µM)	relative viability ([1]; first compound 0.1265 µM)	relative viability ([1]; first compound 0.4 µM)	relative viability ([1]; first compound 1.265 µM)	relative viability ([1]; first compound 4 µM)	relative viability ([2]; first compound 0.04 µM)	relative viability ([2]; first compound 0.1265 µM)	relative viability ([2]; first compound 0.4 µM)	relative viability ([2]; first compound 1.265 µM)	relative viability ([2]; first compound 4 µM)	relative viability ([3]; first compound 0.04 µM)	relative viability ([3]; first compound 0.1265 µM)	relative viability ([3]; first compound 0.4 µM)	relative viability ([3]; first compound 1.265 µM)	relative viability ([3]; first compound 4 µM)	relative viability ([4]; first compound 0.04 µM)	relative viability ([4]; first compound 0.1265 µM)	relative viability ([4]; first compound 0.4 µM)	relative viability ([4]; first compound 1.265 µM)	relative viability ([4]; first compound 4 µM)
NCI-H2170	1.12	1.18	1.2	1.27	1.49	0.577	0.6	0.712	0.748	0.823	0.261	0.278	0.274	0.258	0.27	0.899	0.832	0.83	0.724	0.941
LCLC-97TM1	0.389	0.354	0.387	0.413	0.502	0.706	0.779	0.724	0.733	0.716	1.78	1.54	–	1.74	1	0.263	0.206	0.22	0.309	0.274
NCI-H322M	0.956	0.868	0.918	0.896	1.37	0.988	0.846	0.808	0.805	0.918	0.572	0.659	0.437	0.876	0.783	0.538	0.591	0.572	0.511	0.653
NCI-H1651	0.889	0.839	0.845	0.837	0.913	0.977	0.84	0.739	0.923	0.767	0.998	0.819	0.639	0.49	0.421	0.452	0.433	0.436	0.484	0.524
HARA	1.06	0.972	1.01	1.03	1.18	0.668	0.561	0.682	–	0.555	0.826	0.732	0.27	0.217	0.213	0.484	0.263	0.339	0.292	0.436
NCI-H1944	1.21	0.988	1.13	–	1.23	0.993	0.677	0.688	0.513	0.573	0.822	0.699	–	0.691	0.553	0.757	0.512	0.465	0.379	0.607
NCI-H2405	0.847	0.867	0.855	–	1.02	0.684	0.704	0.657	–	0.794	1.19	0.661	0.194	0.336	0.316	0.772	0.735	0.674	–	0.901
201T	0.985	0.993	1.03	1.02	1.12	1.08	1.04	0.974	0.938	0.96	1.07	0.967	0.78	0.911	0.868	0.64	0.581	0.511	0.585	0.681
PC-3 [JPC-3]	0.989	0.919	0.948	0.92	0.934	0.681	0.733	0.668	0.71	0.618	0.527	0.499	0.438	0.573	0.522	–	0.688	0.69	0.683	0.808
NCI-H838	0.917	0.845	0.908	0.947	1.27	0.271	0.229	0.308	0.342	0.327	0.804	0.485	0.323	0.281	0.261	1.04	0.877	0.904	0.829	0.948
NCI-H1792	0.881	0.875	0.94	0.958	1.01	0.507	0.496	0.427	–	0.42	1	0.869	–	0.567	0.793	0.666	0.66	0.527	–	0.685
HOP-62	0.777	1.09	0.931	1.06	0.896	1.11	0.991	0.895	0.954	0.816	1.16	1.02	0.996	0.866	0.461	0.491	0.439	0.602	0.558	0.746
NCI-H1915	0.916	0.878	0.85	0.934	1.03	0.699	0.827	0.75	0.639	0.688	1.11	0.949	0.956	0.611	0.387	0.684	0.688	0.694	0.597	0.734
BEN	0.924	0.868	0.963	0.532	0.662	0.227	0.212	0.319	0.289	0.13	0.627	0.695	0.348	0.279	0.317	0.573	0.57	0.614	0.611	0.578
NCI-H1437	0.969	0.799	0.964	0.903	0.752	1.07	0.995	0.964	1.01	0.907	0.826	0.679	0.58	0.536	0.5	1.13	1.15	0.996	1.03	0.706
EMC-BAC-2	0.779	0.734	0.77	0.889	1.03	1.24	1.19	1.2	–	1.14	0.931	0.955	0.543	0.645	0.588	1.1	1.05	1.12	1.05	1.21
NCI-H2087	0.897	0.898	0.921	0.809	0.846	0.164	0.227	0.162	0.142	0.142	–	0.693	0.871	0.499	0.677	1.34	1.26	1.43	1.17	1.21

Cell Line	relative viability ([1]; first compound 0.04 µM)	relative viability ([1]; first compound 0.1265 µM)	relative viability ([1]; first compound 0.4 µM)	relative viability ([1]; first compound 1.265 µM)	relative viability ([1]; first compound 4 µM)	relative viability ([2]; first compound 0.04 µM)	relative viability ([2]; first compound 0.1265 µM)	relative viability ([2]; first compound 0.4 µM)	relative viability ([2]; first compound 1.265 µM)	relative viability ([2]; first compound 4 µM)	relative viability ([3]; first compound 0.04 µM)	relative viability ([3]; first compound 0.1265 µM)	relative viability ([3]; first compound 0.4 µM)	relative viability ([3]; first compound 1.265 µM)	relative viability ([3]; first compound 4 µM)	relative viability ([4]; first compound 0.04 µM)	relative viability ([4]; first compound 0.1265 µM)	relative viability ([4]; first compound 0.4 µM)	relative viability ([4]; first compound 1.265 µM)	relative viability ([4]; first compound 4 µM)
NCI-H650	0.741	0.724	0.765	0.757	1.1	0.889	0.926	0.698	0.739	0.806	1.29	0.686	0.5	0.269	0.472	0.844	0.909	1.01	1.29	0.946
LXF-289	0.823	0.754	0.825	0.781	0.87	0.701	0.64	0.685	0.63	0.676	1.04	1.02	0.856	0.737	0.645	1.3	1.01	1.1	1.29	1.05
LOU-NH91	0.695	0.696	0.761	0.779	0.801	0.341	0.403	0.32	0.323	0.313	0.817	0.77	0.537	0.518	0.517	0.758	0.743	0.72	0.634	0.831
NCI-H2347	0.776	0.684	0.759	0.601	0.749	0.346	0.415	0.372	0.228	0.44	0.833	0.911	0.704	0.446	0.536	0.708	0.699	0.823	0.645	0.905
NCI-H1993	0.835	0.813	0.883	0.873	0.856	0.852	0.802	0.836	0.772	0.816	0.797	0.798	–	0.754	0.734	0.747	0.822	0.726	0.783	0.678
HCC-827	0.89	0.903	0.945	0.973	0.917	0.687	0.588	0.544	–	0.587	0.195	0.273	0.197	0.251	0.21	0.186	0.233	0.208	0.196	0.174
CAL-12T	0.629	0.621	0.805	0.808	1.12	0.803	0.454	0.485	0.273	0.29	1.25	0.817	0.849	–	0.685	0.501	0.6	0.609	0.679	0.604
PC-14	1.02	0.781	0.976	0.915	1.06	0.175	0.207	0.215	0.134	0.133	0.343	0.227	0.232	0.264	0.283	0.317	0.337	0.338	0.387	0.395
NCI-H23	0.591	0.559	0.574	0.689	0.989	0.223	0.219	0.21	0.191	0.213	1.34	1.17	–	0.688	0.698	0.25	0.202	0.162	0.229	0.325
NCI-H727	0.986	0.863	0.712	–	0.919	0.423	0.362	0.306	–	0.426	1.12	0.894	0.339	0.868	0.569	0.641	0.593	0.522	0.566	0.541
HCC-44	0.83	0.774	0.874	0.762	0.843	1.02	1.01	1.03	0.88	1.07	1.07	1.1	0.622	0.342	0.368	1.04	0.946	0.977	1.13	0.986
A-427	0.918	0.825	1.04	0.714	0.865	0.874	0.881	0.908	0.75	0.722	1.2	1.04	0.903	0.993	0.582	0.735	0.788	0.631	0.641	0.785
ABC-1	1.09	1.04	1.38	1.11	0.852	0.636	–	–	0.504	0.527	1.3	0.997	–	–	1.08	0.766	0.906	0.702	0.956	0.869
LK-2	0.331	0.181	0.212	0.486	1.07	0.204	0.182	0.159	0.195	0.202	1.2	0.95	0.605	0.706	0.949	0.414	0.476	0.353	0.209	0.466
NCI-H647	1.12	1.13	–	1.04	1.19	0.228	0.181	0.147	0.0988	0.152	1.26	0.774	0.634	0.526	0.548	0.438	0.476	0.457	0.471	0.554
NCI-H3122	0.262	0.264	0.318	0.531	0.469	0.109	0.0823	0.0856	0.0704	0.0698	1.1	1.04	0.891	0.804	0.691	0.971	0.947	0.957	1.04	0.977
